Results as given in US8263791B2, “Method and reagent for protein analysis” (National Institute of Advanced Industrial Science and …, priority 2008, dated 2012).
Values joined by “and” are separate entries in the source; they are usually repeats but may differ in a detail not shown here. Equal entries are not always repeated.

Legend:
[1] = Water solubility / precipitation in the staining solution; format: physicochemical
Procedure: (§1) After electrophoresis, the gel was immediately immersed in a solution (I) (purified water, 1% Tween80 aqueous solution, or 1% Tween20 aqueous solution) for a predetermined period of time (20 minutes or 30 minutes). Subsequently, the gel was transferred to another container and then a buffer (purified water/25 mM phosphate buffer (pH 2.5)/methanol=45/45/10 (v/v)) in which Compound 1 (100 μg/mL) had been dissolved was added. After being left to stand for 10 minutes, the gel was transferred to another container and then immersed in a solution (II) (purified water, 1% Tween80 aqueous solution, or 1% Tween20 aqueous solution) for decoloration.
(§2) Protein detection was carried out using Compound 1 and Compound 2 synthesized in Example 1 under analysis conditions described in Example 3. After electrophoresis, the gel was first immersed in 1% Tween80 aqueous solution for 20 minutes and then immersed in a buffer containing Compound 1 (60 μg/mL) or Compound 2 (60 μg/mL) for 10 minutes. Subsequently, the gel was transferred to and immersed in a container containing a 1% Tween80 aqueous solution for 30 minutes. […] The total time needed for treatment was 60 minutes. The gel was analyzed using a fluorescence imaging analyzer. When Compound 1 was used, bands containing 2.6 ng or more of proteins could be detected. Compared with the result, the detection limit was 20 ng in the case of Compound 2.
(§3) After electrophoresis, the gel was immediately immersed in distilled water for 20 to 30 minutes. Subsequently, the gel was transferred to another container and then a staining solution (distilled water:methanol=1:1 (v/v)) in which Compound 3 (100 μg/mL) had been dissolved was added. After 30 minutes of immersion, the gel was transferred to another container and then immersed in a wash solution (water:methanol=90:10 (v/v)) for decoloration. The gel was observed using a fluorescence imaging analyzer.

[2] = Measurement of maximum absorption wavelength and maximum fluorescence wavelength; format: physicochemical; conditions: 25 μg/mL in purified water
Procedure: Compound 1 and Compound 2 were separately dissolved in purified water at a concentration of 25 μg/mL. The absorption spectra at a wavelength ranging from 200 nm to 800 nm and the fluorescence spectra at a wavelength ranging from 450 nm to 600 nm were measured. The absorption spectra were measured using U3310 (Hitachi High-Technologies Corporation) and the fluorescence spectra were measured using RF-1500 (Shimadzu Corporation).

[3] = system: Protein Standard Mixture IV (ovotransferrin, albumin, ovalbumin, carboanhydrase, myoglobin, cytochrome C); assay: Protein detection with staining carried out during electrophoresis; design: key to Detection: +: All bands could be detected.; −: At least one band could not be detected; conditions: compound 15 μg/mL in electrophoresis buffer
Procedure: Compound 1 or Compound 2 were dissolved in a buffer for electrophoresis (27.2 mM Tris (hydroxymethyl)aminomethane, 192 mM glycine, and 3.5 mM sodium dodecyl sulfate (pH 8.3)) at a concentration of 15 μg/mL. With the use of the above buffer, the other conditions identical to those described in Example 3 were employed to carry out electrophoresis. After completion of electrophoresis, the gel was transferred to a container containing 1% Tween80 aqueous solution, left to stand for 40 minutes, and then analyzed using a fluorescence imaging analyzer. When Compound 1 was used, bands containing 5.2 ng or more of a protein could be detected.

[4] = system: Protein Standard Mixture IV (ovotransferrin, albumin, ovalbumin, carboanhydrase, myoglobin, cytochrome C); assay: Protein detection on SDS-PAGE gel by staining after electrophoresis, varying solutions (I)/(II); conditions: 100 μg/mL
Procedure: (§4) Two (2) mL of a stock buffer (a mixture of purified water (4.2 mL), 0.5 M Tris-hydrochloric acid buffer (pH 8.6) (1.0 mL), glycerol (0.8 mL), 100 g/L sodium dodecyl sulfate (1.6 mL), and 2-mercaptoethanol (0.4 mL)) was added to 2 mg of a commercially available molecular weight marker (Protein Standard Mixture IV; Merck & Co., Inc.). The mixture was heated in boiling water for 2 minutes and then cooled. Thirty (30) μL each of the resultant was dispensed in a 0.5-mL microtube and then cryopreserved at −80° C. until the use thereof. A sample diluent (a mixture of purified water (3.8 mL), 0.5 M Tris-hydrochloric acid buffer (pH 8.6) (1.0 mL), glycerol (0.8 mL), 100 g/L sodium dodecyl sulfate (1.6 mL), and 5 g/L bromophenol blue (0.8 mL)) was added to the thawed molecular weight marker, so that a dilution series with protein concentrations ranging from 0.4 ng/μL to 200 ng/μL was prepared.
(§5) The marker contained, in terms of mass, equal amounts of ovotransferrin (78 kDa), albumin (66.3 kDa), ovalbumin (42.7 kDa), carboanhydrase (30 kDa), myoglobin (16.9 kDa), and cytochrome C (12.4 kDa).
(§6) • Electrophoresis apparatus: RAPIDAS-Mini-Slab electrophoresis chamber AE6450 (ATTO Corporation) • Polyacrylamide gel: Multigel II mini 10/20 (13W) (COSMO BIO Co., Ltd.) • Buffer for electrophoresis: 27.2 mM Tris (hydroxymethyl) aminomethane, 192 mM glycine, 3.5 mM Sodium dodecyl sulfate (pH 8.3) • Fluorescence imaging analyzer: Light capture II (ATTO Corporation)
Light source: green LED (center wavelength: 525 nm)
Cut filter: R-60 (550 nm).
(§7) Each sample of the dilution series prepared in (1) above was applied to a gel at 5 μL/well (lane 1: 167 ng of protein/band; lane 2: 83.3 ng/band; lane 3: 41.7 ng/band; lane 4: 20.8 ng/band; lane 5: 10.4 ng/band; lane 6: 5.2 ng/band; lane 7: 2.6 ng/band; lane 8: 1.3 ng/band; lane 9: 0.7 ng/band; and lane 10: 0.4 ng/band) and then subjected to electrophoresis with constant current of 30 mA for 45 minutes.
as §1

[5] = system: Protein Standard Mixture IV (ovotransferrin, albumin, ovalbumin, carboanhydrase, myoglobin, cytochrome C); assay: Evaluation of protein detection using Compound 1 and Compound 2 (staining after electrophoresis, Tween80); design: key to Detection: +: All bands could be detected.; −: At least one band could not be detected; conditions: for Detection / Detection limit (protein per band that could be detected): compound 60 μg/mL; for Detection limit (protein per band that could be detected): 1% Tween80 before and after staining
Procedure: as §4, §5, §6, §7, §2

BSA = target: T1, BSA (Bos taurus, UniProt P02769); assay: Evaluation of protein detection using Compound 3; design: key to Detection: +: Band could be detected.; −: No band could be detected
T1 construct: purchased PIERCE
Procedure: Protein samples were prepared as follows: Sample buffer (0.0625 M Tris-HCl (pH 6.8), 5% 2-mercaptoethanol, 2% SDS, 20% glycerol, and 0.005% BPB) was added to 2.0 mg/mL commercially available BSA (PIERCE). to dilute it to concentrations of 200, 60, 30, 12, 6, 3, and 0.2 ng/μL, respectively. These protein samples were heated at 80° C. for 5 minutes and then left to stand to cool.
Conditions for electrophoresis are as follows: • Electrophoresis apparatus: ERICA XVE-001C (DRC Co., Ltd.) • Polyacrylamide gel: XV PANTERA Gel (DRC Co., Ltd.) • Buffer for electrophoresis: electrophoresis buffer attached to XV PANTERA Gel • Fluorescence imaging analyzer: LS400 (TECAN GROUP LTD) • Excitation wavelength: 543 nm; detection wavelength: 590 nm.
Each of the above prepared samples was applied to a gel at 5 μL/well (1000, 300, 150, 60, 30, 15, and 1 ng/band, respectively), followed by electrophoresis.
as §3

T1 sequence (P02769 25-607): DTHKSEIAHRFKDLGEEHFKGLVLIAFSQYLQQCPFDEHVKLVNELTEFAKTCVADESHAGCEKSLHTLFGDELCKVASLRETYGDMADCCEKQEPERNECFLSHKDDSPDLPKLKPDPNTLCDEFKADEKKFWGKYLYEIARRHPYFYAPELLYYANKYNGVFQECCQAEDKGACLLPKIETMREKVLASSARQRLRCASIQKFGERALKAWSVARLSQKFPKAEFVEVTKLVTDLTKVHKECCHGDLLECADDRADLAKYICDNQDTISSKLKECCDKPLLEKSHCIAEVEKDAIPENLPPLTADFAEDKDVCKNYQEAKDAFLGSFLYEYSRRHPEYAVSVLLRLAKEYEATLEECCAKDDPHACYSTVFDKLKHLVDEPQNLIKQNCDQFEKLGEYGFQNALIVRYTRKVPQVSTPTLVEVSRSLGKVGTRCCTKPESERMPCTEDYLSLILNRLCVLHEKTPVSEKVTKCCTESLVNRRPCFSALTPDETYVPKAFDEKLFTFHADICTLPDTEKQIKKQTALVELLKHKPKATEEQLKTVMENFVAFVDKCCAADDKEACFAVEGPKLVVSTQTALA

Row | SMILES | Excitation wavelength for maximum fluorescence [2] [nm] | Maximum absorption wavelength [2] | Maximum fluorescence wavelength [2] [nm] | Detection ([3]; Lane 1, protein 167 ng/band) | Detection ([3]; Lane 2, protein 83.3 ng/band) | Detection ([3]; Lane 3, protein 41.7 ng/band) | Detection ([3]; Lane 4, protein 20.8 ng/band) | Detection ([3]; Lane 5, protein 10.4 ng/band) | Detection ([3]; Lane 6, protein 5.2 ng/band) | Detection ([3]; Lane 7, protein 2.6 ng/band) | Detection ([3]; Lane 8, protein 1.3 ng/band) | Detection ([3]; Lane 9, protein 0.7 ng/band) | Detection ([3]; Lane 10, protein 0.4 ng/band) | Detection ([5]; Lane 1, protein 167 ng/band) | Detection ([5]; Lane 2, protein 83.3 ng/band) | Detection ([5]; Lane 3, protein 41.7 ng/band) | Detection ([5]; Lane 4, protein 20.8 ng/band) | Detection ([5]; Lane 5, protein 10.4 ng/band) | Detection ([5]; Lane 6, protein 5.2 ng/band) | Detection ([5]; Lane 7, protein 2.6 ng/band) | other results
1 | N#CC(C#N)=C1C=C(/C=C/c2ccccc2S(=O)(=O)[O-])OC(/C=C/c2ccccc2S(=O)(=O)[O-])=C1.[Na+].[Na+] [Compound 1, 2,2′-(1E,1′E)-2,2′-(4-(dicyanomethylene)-4H-pyrane-2,6-diyl)bis(ethene-2,1-diyl)bis(sodium benzenesulfonate)salt] | 444 | 293 nm and 380 nm | 516 | + | + | + | + | + | + | + | − | − | − | + | + | + | + | + | + | + | Precipitation in the solutions during staining ([1]; 60 μg/mL in buffer, Example 4): no precipitation; Precipitation in the solutions during staining ([1]; 100 μg/mL in purified water/25 mM phosphate buffer (pH 2.5)/methanol=45/45/10): no precipitation; Protein per band that could be detected ([3]; 1% Tween80 40 minutes): ≥ 5.2 ng; Detection sensitivity ([4]; Conditions 1: solution (I) purified water, solution (II) purified water): 5 ng; Detection sensitivity ([4]; Conditions 2: solution (I) Tween80, solution (II) purified water): 5 ng; Detection sensitivity ([4]; Conditions 3: solution (I) purified water, solution (II) Tween80): 5 ng; Detection sensitivity ([4]; Conditions 4: solution (I) Tween80, solution (II) Tween80): 5 ng; Detection sensitivity ([4]; Conditions 5: solution (I) Tween20, solution (II) Tween20): 10 ng; Relationship between protein concentration of each band and fluorescence intensity ([5]; FIG. 2, all proteins of the marker): no differences due to protein type were observed; Detection ([5]; Lane 8, protein 1.3 ng/band): −; Detection ([5]; Lane 9, protein 0.7 ng/band): −; Detection ([5]; Lane 10, protein 0.4 ng/band): −; Detection limit (protein per band that could be detected) [5]: ≥ 2.6 ng
2 | CC1=CC(=C(C#N)C#N)C=C(/C=C/c2ccccc2S(=O)(=O)[O-])O1.[Na+] [Compound 2, (E)-2-(2-(4-(dicyanomethylene)-6-methyl-4H-pyrane-2-yl)vinyl)sodium Benzenesulfonate] | 440 | 388 nm | 511 | − | − | − | − | − | − | − | − | − | − | + | + | + | + | − | − | − | Protein detection (in words) ([3]; 1% Tween80 40 minutes): proteins other than cytochrome C could not be detected; Detection ([5]; Lane 8, protein 1.3 ng/band): −; Detection ([5]; Lane 9, protein 0.7 ng/band): −; Detection ([5]; Lane 10, protein 0.4 ng/band): −; Detection limit (protein per band that could be detected) [5]: 20 ng
3 | CC1=CC(=C(C#N)C#N)C=C(/C=C/c2ccc(O)c3ccccc23)O1 [Compound 3] |  |  |  |  |  |  |  |  |  |  |  |  |  |  |  |  |  |  |  |  | Solubility in water [1]: hardly soluble in water; Precipitation in the staining solution during staining ([1]; 100 μg/mL in distilled water:methanol=1:1): precipitated in the staining solution; Sensitivity lower than that of the compound of the present invention (BSA): ≥ 10 times; Detection (BSA; BSA 1 ng/band, compound 100 μg/mL): −; Detection (BSA; BSA 15 ng/band, compound 100 μg/mL): −; Detection (BSA; BSA 30 ng/band, compound 100 μg/mL): +; Detection (BSA; BSA 60 ng/band, compound 100 μg/mL): +; Detection (BSA; BSA 150 ng/band, compound 100 μg/mL): +; Detection (BSA; BSA 300 ng/band, compound 100 μg/mL): +; Detection (BSA; BSA 1000 ng/band, compound 100 μg/mL): +; Protein detection sensitivity (BSA; BSA, compound 100 μg/mL): 30 ng; False positive spots after washing step (BSA; wash solution water:methanol=90:10): insoluble matter adhering to the gel appeared as false positive spots
